Assay results: patent US12325022B2, “Microfluidic device, system, and method for the study of organisms” (ECOLE POLYTECHNIQUE FEDERALE DE LAUSANNE (EPFL), priority 2014, dated 2025)
Entries after “also recorded” stand apart in the source; their conditions may differ.

Columns and labels:
wild-type C. elegans [1] = assay: whole plant or invertebrate; conditions: Caenorhabditis elegans, read-out: EC50 of dose-response curve (mean percentage of paralyzed worms)
Protocol: (§1) The aim of the experiment was to correlate the concentration of the drug with the number of paralyzed worms over time, and to trace a dose-response curve for this drug.
(§2) L1 specimens of wild-type C. elegans have been injected in the chip with the above-described protocol and fed them for 2-3 days to get adult worms. […] The wells were plugged in the inlet and sucked with a syringe from the outlet at total outflows between 100-200 nL/s for 40-80 minutes. The procedure was recorded in real-time for all the chambers at the same time by using a stereo-microscope. It was used a suitable ring-shape back-illumination to enhance the contrast and make the adult worms much lighter than the background.
(§3) Image analysis was done afterwards directly on the video recorded: the number of paralyzed worms per chamber were counted every 10 minutes from the beginning of the drug injection, and the total percentage of paralyzed worms per channel (1 channel=1 concentration) was calculated.

wild-type C. elegans [2] = conditions: sigmoid fit; paralyzed worms between 30 and 40 minutes after tetramisole injection
Protocol: as §1, §2, §3

[3] = test system: N2 wild-type C. elegans worms and their embryos; assay: on-chip 5-FU treatment of worms with monitoring of embryo development in the incubator array; assay type: in vivo; conditions: worms treated on-chip from L4 stage with 2 mM in M9 buffer at 25° C.; embryos monitored for 12 h (array pictures at 600 minutes)
Protocol: Bar graphs are expressed as mean+SEM, *** p≤0.001.
Wild-type worms were isolated in the culture chamber at the L4 larval stage and treated on-chip with 5-FU at a concentration of 2 mM, while being cultured at 25° C. towards the adult stage. Subsequently, embryos were transferred to the incubator array and monitored for 12 h.

c1ccc(C2CN3CCSC3=N2)cc1 (stereo not drawn) [tetramisole]
EC50 (wild-type C. elegans [1]): ~57 µM
Hill slope of dose-response curve (paralyzed worms) (wild-type C. elegans [2]): about 0.02 μM

O=c1[nH]cc(F)c(=O)[nH]1 [5-FU, 5-fluorouracil]
development of embryos laid by treated worms [3]: All embryos prematurely died; also recorded: blocked development
